The experiment concerns Tat-mediated activation of the HIV-LTR promoter. Briefly: TAT-mediated transactivation, HIV-LTR-Luc reporter. It is filed as cell-based, HIV-1. The method, then:
SupT1 cells were transfected with a HIV-LTR-Luc construct (LAI), +/−Tat (pcTAT, subtype B), along with a constitutively active renilla-luciferase construct (to normalize for transfection efficiency). Firefly and renilla activity were monitored (sequentially, same sample) 24 hours post transfection. DMSO was used as a negative control; and Compound 9 was added at 1, 0.1, and 0.001 μM. These reactions were done in singlet (pilot). TZM-bl cells are HeLa derived cells that contain CD4, CCR5, and an integrated HIV promoter (LTR) fused to firefly luciferase. Untransfected cells (LTR) or Tat-transfected cells (LTR+TAT) were incubated with Compound 9 at the indicated doses at the time of transfection. DMSO was used as a negative control. Luciferase activity was measured 20 hours post-transfection using a commercially-available luciferase substrate (Promega) and the results are shown in FIG. 8. […] Repeat results are illustrated in Tat-Experiment 2 graph.

Each structure is given as a SMILES string.

Take `CC1(C)CC(=O)c2c(C(F)(F)F)nn(-c3ccc(C(N)=O)c(N[C@H]4CC[C@H](O)CC4)c3)c2C1` [Compound 9, 4-(6,6-Dimethyl-4-oxo-3-trifluoromethyl-4,5,6,7-tetrahydro-indazol-1-yl)-2-(trans-4-hydroxy-cyclohexylamino)-benzamide]: the Tat-mediated transactivation entry is reported as “inhibit”.

The record behind these values is patent publication US20160143884A1, “USE OF TETRAHYDROINDAZOLYLBENZAMIDE AND TETRAHYDROINDOLYLBENZAMIDE DERIVATIVES FOR THE TREATMENT OF HUMAN IMMUNODEFICIENCY VIRUS (HIV) AND ACQUIRED IMMUNE DEFICIENCY SYNDROME (AIDS)” (Esanex, Inc., priority 2014, published 2016).
